Measured values: US20260158014A1, “METHODS OF ADMINISTERING VOXELOTOR” (Global Blood Therapeutics, Inc., priority 2021, published 2026)

Key:
OAT1 = OAT1 (Homo sapiens, UniProt Q4U2R8); experiment: In vitro transporter study; format: in vitro ADME
CYP1A2 = CYP1A2 (Homo sapiens, UniProt P05177); experiment: Clinical probe-substrate DDI study: caffeine; format: in vivo
Protocol: (§1) The effect of voxelotor on the pharmacokinetics (PK) of a single dose of caffeine, warfarin sodium, omeprazole, and midazolam hydrochloride, which are probe substrates for cytochrome P450 (CYP)1A2, CYP2C9, CYP2C19, and CYP3A4, respectively, were studied in healthy subjects. During Period 1, subjects received a single dose of caffeine 100 mg, warfarin sodium 10 mg+vitamin K 10 mg, omeprazole 20 mg, and midazolam hydrochloride 2 mg on Day 1. During Period 2, subjects received voxelotor 900 mg QD on Days 1 and 2 followed by 600 mg QD on Day 3, a single dose of caffeine 100 mg, warfarin sodium 10 mg+vitamin K 10 mg, omeprazole 20 mg, and midazolam hydrochloride 2 mg on Day 4, and voxelotor 600 mg QD on Days 4 through 7.
(§2) Whole blood and plasma concentrations of voxelotor and plasma concentrations of caffeine, paraxanthine, S-warfarin, omeprazole, 5-hydroxyomeprazole, midazolam, and 1-hydroxymidazolam were determined using validated assays.

[1] = tested on: patients with SCD aged 4 to 11 years; experiment: Open-label Phase 2 trial (part C): Hb response and hemolysis markers; format: in vivo, human
Excerpt: Patients and treatment: Patients with SCD were screened at 15 study sites in the United States, Lebanon, and the United Kingdom. Key inclusion criteria included patients with SCD (homozygous sickle cell disease [HbSS] or HbSβ^0 genotypes), aged 4 to 11 years, and with hemoglobin (Hb) concentrations ≤10.5 g/dL at baseline. Concomitant hydroxyurea was allowed if the dose was stable for ≥3 months at enrollment, with no anticipated need for dose adjustment during the study. There was no eligibility requirement regarding prior VOCs. Patients who were receiving chronic red blood cell transfusion therapy, had received a transfusion in the past 30 days, or had been hospitalized for a VOC, acute chest syndrome, splenic sequestration crisis, or dactylitis within 14 days before providing informed consent were excluded.
All patients received dispersible voxelotor tablets. Patients aged 4 to 11 years received once-daily voxelotor weight-based-dosing (Table 1).
Statistical analyses: All efficacy and safety assessments were summarized with descriptive statistics. Population PK analyses using nonlinear mixed-effects modeling were performed to characterize voxelotor PK in plasma and whole blood.
Patients 4 to <12 years received tablets for oral suspension based on body weight at baseline. OXBRYTA doses of 600 mg, 900 mg, or 1,500 mg once daily were administered to patients weighing 10 kg to <20 kg, 20 kg to <40 kg, or ≥40 kg, respectively. Patients 12 to <17 years received OXBRYTA 1,500 mg once daily.
Patients were included if their baseline hemoglobin (Hb) was <10.5 g/dL. Eligible patients on stable doses of hydroxyurea for at least 90 days were allowed to continue hydroxyurea therapy throughout the study.
Efficacy was based on Hb response rate, which is defined as a Hb increase of >1 g/dL from baseline to Week 24.

MATE2-K = MATE2-K (Homo sapiens, UniProt Q86VL8); experiment: In vitro transporter study; format: in vitro ADME
P-gp = P-gp (Homo sapiens, UniProt P08183); experiment: In vitro transporter study; format: in vitro ADME
Sequence of P-gp (P08183 whole entry): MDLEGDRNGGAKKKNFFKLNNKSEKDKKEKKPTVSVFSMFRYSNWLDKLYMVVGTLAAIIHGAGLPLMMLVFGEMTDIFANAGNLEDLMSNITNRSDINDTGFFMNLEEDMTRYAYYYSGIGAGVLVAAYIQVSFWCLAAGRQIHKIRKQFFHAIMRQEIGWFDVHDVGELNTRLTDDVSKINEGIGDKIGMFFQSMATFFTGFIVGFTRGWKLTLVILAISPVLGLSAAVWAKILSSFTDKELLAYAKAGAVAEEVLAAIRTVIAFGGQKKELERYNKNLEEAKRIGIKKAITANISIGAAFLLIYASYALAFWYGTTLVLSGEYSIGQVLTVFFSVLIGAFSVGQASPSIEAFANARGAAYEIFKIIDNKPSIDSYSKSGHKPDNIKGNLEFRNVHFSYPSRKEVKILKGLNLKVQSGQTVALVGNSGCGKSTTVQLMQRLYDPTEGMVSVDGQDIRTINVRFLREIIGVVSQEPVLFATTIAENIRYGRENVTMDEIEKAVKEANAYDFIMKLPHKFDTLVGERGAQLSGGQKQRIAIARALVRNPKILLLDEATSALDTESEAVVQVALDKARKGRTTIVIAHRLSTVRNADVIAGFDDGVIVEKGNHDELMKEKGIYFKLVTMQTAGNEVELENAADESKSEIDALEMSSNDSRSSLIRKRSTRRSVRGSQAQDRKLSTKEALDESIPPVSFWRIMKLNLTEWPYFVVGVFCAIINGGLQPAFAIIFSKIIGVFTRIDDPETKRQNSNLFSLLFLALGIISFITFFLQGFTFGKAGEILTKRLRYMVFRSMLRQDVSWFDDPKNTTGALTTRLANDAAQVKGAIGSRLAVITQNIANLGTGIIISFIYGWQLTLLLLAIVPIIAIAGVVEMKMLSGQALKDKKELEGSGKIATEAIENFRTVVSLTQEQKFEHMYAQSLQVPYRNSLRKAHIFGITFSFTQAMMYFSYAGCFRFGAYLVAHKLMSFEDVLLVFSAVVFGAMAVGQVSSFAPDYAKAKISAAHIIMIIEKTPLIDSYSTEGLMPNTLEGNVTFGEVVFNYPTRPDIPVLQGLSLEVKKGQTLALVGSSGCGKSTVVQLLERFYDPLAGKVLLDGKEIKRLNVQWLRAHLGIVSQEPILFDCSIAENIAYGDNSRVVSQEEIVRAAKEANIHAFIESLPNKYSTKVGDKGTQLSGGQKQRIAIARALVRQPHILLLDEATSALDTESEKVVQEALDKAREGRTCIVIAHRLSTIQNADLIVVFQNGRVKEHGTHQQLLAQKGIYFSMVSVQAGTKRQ

CYP3A4 = CYP3A4 (Homo sapiens, UniProt P08684); experiment: Clinical probe-substrate DDI study: midazolam; conditions: human, in vivo
Sequence of CYP3A4 (P08684 whole entry): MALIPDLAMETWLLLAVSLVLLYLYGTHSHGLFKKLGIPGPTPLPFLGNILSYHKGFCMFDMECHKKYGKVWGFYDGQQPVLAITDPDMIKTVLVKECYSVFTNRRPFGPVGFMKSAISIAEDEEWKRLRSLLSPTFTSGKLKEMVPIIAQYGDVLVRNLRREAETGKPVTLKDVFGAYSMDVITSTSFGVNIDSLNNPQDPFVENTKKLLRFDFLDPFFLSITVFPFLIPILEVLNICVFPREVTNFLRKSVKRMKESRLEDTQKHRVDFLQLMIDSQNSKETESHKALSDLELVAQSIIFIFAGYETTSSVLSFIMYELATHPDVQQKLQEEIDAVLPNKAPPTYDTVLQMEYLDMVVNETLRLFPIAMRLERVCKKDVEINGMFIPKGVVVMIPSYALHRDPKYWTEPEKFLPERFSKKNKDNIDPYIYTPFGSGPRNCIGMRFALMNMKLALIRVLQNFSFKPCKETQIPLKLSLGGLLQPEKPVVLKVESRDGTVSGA
Protocol: as §1, §2

CYP2C19 = target: T1, CYP2C19 (Homo sapiens, UniProt P33261); experiment: Clinical probe-substrate DDI study: omeprazole; format: in vivo
T1 construct: endogenous in cells; host or cells: healthy human subjects (in vivo)
T1 sequence (P33261 whole entry): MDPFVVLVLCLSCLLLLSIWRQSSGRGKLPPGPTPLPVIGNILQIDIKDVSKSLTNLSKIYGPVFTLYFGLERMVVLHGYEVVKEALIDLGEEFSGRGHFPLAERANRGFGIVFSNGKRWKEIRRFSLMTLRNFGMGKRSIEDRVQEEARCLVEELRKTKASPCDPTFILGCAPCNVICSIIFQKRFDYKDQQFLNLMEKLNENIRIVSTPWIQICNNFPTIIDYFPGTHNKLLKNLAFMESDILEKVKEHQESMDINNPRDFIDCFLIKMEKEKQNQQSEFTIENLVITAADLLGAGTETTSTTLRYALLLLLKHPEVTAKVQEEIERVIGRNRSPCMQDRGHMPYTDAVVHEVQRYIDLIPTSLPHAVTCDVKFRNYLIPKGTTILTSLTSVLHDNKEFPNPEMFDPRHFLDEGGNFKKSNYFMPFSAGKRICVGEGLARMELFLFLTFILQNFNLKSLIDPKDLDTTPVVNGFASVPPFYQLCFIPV
Protocol: as §1, §2

[2] = Probe-substrate DDI study: voxelotor exposure and safety in healthy subjects; format: in vivo, human
Protocol: as §1, §2

pregnant rats = experiment: Pre- and postnatal development study in rats; format: in vivo, rat
Protocol: In a pre- and postnatal development study, voxelotor was administered orally to pregnant rats at 15, 50 and 250 mg/kg/day (gestation day 6 through lactation day 20). Maternal gestational body weights were decreased at 250 mg/kg/day, which continued to the end of lactation.

rats = experiment: Fertility and early embryonic development study; format: in vivo, rat
Protocol: In a fertility and early embryonic development study, voxelotor was administered orally to rats at 15, 50, and 250 mg/kg/day. Males were dosed 28 days prior to mating through cohabitation and females were dosed 14 days prior to mating through gestation Day 7.

CYP2B6 = CYP2B6 (Homo sapiens, UniProt P20813); experiment: In vitro CYP enzyme study; format: in vitro ADME
Sequence of CYP2B6 (P20813 whole entry, species assumed): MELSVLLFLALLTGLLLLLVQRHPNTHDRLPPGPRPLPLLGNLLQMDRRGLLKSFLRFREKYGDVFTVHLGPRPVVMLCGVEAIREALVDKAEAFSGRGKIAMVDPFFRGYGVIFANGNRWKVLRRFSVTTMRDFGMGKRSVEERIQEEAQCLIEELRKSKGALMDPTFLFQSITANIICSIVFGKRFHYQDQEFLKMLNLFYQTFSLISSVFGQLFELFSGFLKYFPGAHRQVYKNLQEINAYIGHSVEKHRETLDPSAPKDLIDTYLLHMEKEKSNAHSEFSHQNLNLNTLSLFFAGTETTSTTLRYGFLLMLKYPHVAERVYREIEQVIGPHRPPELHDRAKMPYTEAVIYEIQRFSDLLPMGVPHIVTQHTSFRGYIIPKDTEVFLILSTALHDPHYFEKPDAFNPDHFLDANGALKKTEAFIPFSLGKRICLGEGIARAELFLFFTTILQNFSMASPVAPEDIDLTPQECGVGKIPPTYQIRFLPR

OATP1B3 = OATP1B3 (Homo sapiens, UniProt Q9NPD5); experiment: In vitro transporter study; format: in vitro ADME
Sequence of OATP1B3 (Q9NPD5 whole entry, species assumed): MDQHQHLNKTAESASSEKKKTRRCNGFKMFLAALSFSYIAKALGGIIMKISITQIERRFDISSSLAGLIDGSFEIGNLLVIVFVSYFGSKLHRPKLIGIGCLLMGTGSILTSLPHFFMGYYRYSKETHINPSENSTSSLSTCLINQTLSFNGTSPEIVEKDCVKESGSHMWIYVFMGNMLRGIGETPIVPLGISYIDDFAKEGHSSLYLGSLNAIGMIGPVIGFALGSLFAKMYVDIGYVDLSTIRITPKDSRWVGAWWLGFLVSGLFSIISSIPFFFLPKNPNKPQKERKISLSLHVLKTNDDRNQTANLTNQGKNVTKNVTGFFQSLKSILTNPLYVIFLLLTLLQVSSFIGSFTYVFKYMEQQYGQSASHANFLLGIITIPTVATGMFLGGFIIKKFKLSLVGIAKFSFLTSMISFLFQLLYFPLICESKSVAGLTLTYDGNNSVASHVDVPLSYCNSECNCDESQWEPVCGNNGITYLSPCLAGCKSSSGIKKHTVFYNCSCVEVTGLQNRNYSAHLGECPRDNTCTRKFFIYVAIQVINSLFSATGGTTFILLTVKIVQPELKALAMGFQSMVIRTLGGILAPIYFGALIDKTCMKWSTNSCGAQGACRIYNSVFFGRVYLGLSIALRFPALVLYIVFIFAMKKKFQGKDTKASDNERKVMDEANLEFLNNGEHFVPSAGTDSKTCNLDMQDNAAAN

[3] = 4 to 11 years, weight-based dosing

Sequence of CYP1A2 (P05177 whole entry): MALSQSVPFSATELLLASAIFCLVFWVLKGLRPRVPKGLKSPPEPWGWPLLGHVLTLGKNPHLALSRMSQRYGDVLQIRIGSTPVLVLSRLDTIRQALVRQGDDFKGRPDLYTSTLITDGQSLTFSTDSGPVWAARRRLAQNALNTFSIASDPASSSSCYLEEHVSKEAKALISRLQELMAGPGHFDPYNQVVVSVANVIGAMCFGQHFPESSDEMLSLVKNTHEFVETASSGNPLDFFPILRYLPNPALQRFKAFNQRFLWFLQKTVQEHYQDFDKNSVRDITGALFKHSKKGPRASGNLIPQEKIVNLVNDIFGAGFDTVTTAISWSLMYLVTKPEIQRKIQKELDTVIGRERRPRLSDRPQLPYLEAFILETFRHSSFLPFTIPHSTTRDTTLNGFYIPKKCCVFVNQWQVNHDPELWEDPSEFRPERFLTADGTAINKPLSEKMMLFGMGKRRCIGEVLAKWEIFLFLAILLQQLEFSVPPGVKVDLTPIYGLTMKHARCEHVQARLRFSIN
Sequence of OAT1 (Q4U2R8 whole entry, species assumed): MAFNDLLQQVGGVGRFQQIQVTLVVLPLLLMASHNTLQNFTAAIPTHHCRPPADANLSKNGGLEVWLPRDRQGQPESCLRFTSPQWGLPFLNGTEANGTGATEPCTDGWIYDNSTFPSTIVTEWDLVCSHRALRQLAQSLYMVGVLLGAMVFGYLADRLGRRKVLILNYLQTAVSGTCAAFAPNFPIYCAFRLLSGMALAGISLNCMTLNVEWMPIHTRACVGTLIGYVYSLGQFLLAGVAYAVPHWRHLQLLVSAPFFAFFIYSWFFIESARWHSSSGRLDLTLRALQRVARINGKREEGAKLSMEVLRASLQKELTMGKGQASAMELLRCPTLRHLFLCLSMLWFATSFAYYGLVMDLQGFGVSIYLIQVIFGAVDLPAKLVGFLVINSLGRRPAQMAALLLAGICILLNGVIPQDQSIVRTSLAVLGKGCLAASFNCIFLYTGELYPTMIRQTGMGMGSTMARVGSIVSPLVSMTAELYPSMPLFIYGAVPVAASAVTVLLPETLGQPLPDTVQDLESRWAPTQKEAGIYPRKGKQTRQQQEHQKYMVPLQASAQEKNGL

## CC(C)n1nccc1-c1ncccc1COc1cccc(O)c1C=O [voxelotor, 2-hydroxy-6-((2-(1-isopropyl-1H-pyrazol-5-yl)pyridin-3-yl)methoxy)benzaldehyde]
OAT1
  OAT1 inhibition: not an inhibitor
CYP1A2; healthy subjects, voxelotor 900/600 mg QD, caffeine 100 mg
  effect of voxelotor on PK of CYP1A2 probe substrate caffeine: no clinically meaningful effect
CYP1A2; human, in vivo
  CYP1A2 inhibition in vivo: not
[1]; 4 to 11 years, once-daily weight-based 600/900/1500 mg dispersible tablets, n=34
  mean change in Hb from baseline at week 24: 1.0 g/dL
[1]; [3]
  patients with Hb response (>1.0 g/dL increase from baseline) at week 2: 54.5%
  patients with an increase in Hb of any magnitude from baseline at week 24: 82%
[1]; 4 to 11 years, weight-based dosing, n=7/34
  patients with >2.0 g/dL increase in Hb from baseline at week 24: 21%
[1]; 4 to 11 years, weight-based dosing, n=12/34
  patients with >1.5 g/dL increase in Hb from baseline at week 24: 35%
[1]; 4 to 11 years, weight-based dosing, n=34
  patients with Hb response (increase >1.0 g/dL from baseline) at week 24: 47.1%
[1]; patients 4 to <12 years who took at least one dose (16/45)
  Hb response rate (Hb increase >1 g/dL from baseline to Week 24): 36%
[1]; week 24, n=28
  mean percent change from baseline in indirect bilirubin: −38.6%
[1]; week 24, n=31
  mean percent change from baseline in percent reticulocyte count: −3.25%
[1]; week 24, n=32
  mean percent change from baseline in lactate dehydrogenase: −2.6%
MATE2-K
  MATE2-K inhibition: not an inhibitor
P-gp
  P-gp inhibition: not an inhibitor
  substrate of P-gp: not a substrate
CYP3A4
  CYP3A4 inhibition in vivo: inhibits
  CYP3A4 inhibitor classification: moderate inhibitor
CYP2C19; healthy subjects, voxelotor 900/600 mg QD, omeprazole 20 mg
  effect of voxelotor on PK of CYP2C19 probe substrate omeprazole: no clinically meaningful effect
CYP2C19; human, in vivo
  CYP2C19 inhibition in vivo: not
[2]
  safety and tolerability alone and with probe substrates: safe and well tolerated
Pregnant rats; 250 mg/kg/day, gestation day 6 through lactation day 20
  maternal gestational body weights: decreased
Pregnant rats; maternal dose 250 mg/kg/day
  findings in offspring: reduced survival and reduced body weights
Pregnant rats; maternal dose with offspring effects
  exposure at 250 mg/kg/day relative to exposure in patients at recommended dose: approximately 2.8 times
rats; 250 mg/kg/day
  sperm morphology: changes in sperm morphology
  sperm motility: decreased
rats; oral 15, 50, 250 mg/kg/day
  fertility or reproductive function: no effect on fertility or reproductive function
rats; rat, in vivo
  exposure at 250 mg/kg/day relative to human exposure at 1,500 mg/day: approximately 5 times
CYP2B6
  CYP2B6 induction: inducer
  CYP2B6 inhibition: reversible and time-dependent inhibitor
OATP1B3
  OATP1B3 inhibition: not an inhibitor
  substrate of OATP1B3: not a substrate
